Experimental data: the supplement of paper PMC11451515

Tested on: NOMO1
Test: cell viability relative to DMSO control; higher = less cytotoxic
Details: 48 h
Summary of the method: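 NOMO1 or SEM cells were plated at 500 cells/well and P12-Ichikawa cells at 1000 cells/well in 1536-well plates (5 μl), after each leukemia line had been adapted for at least four passages in each medium. Pin dosing delivered library compounds in DMSO at 11 threefold concentrations, 47 μM to 0.79 nM. CellTiter-Glo One luminescence was read after 48 h at 37°C. Viability is reported as a per-plate percentage of DMSO wells, with cell-free wells as background.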

[1] = HPLM + 10% dialyzed FBS, 0.000781 µM
[2] = HPLM + 10% dialyzed FBS, 0.00234 µM
[3] = HPLM + 10% dialyzed FBS, 0.00702 µM
[4] = HPLM + 10% dialyzed FBS, 0.0211 µM
[5] = HPLM + 10% dialyzed FBS, 0.0632 µM
[6] = HPLM + 10% dialyzed FBS, 0.19 µM
[7] = HPLM + 10% dialyzed FBS, 0.569 µM
[8] = HPLM + 10% dialyzed FBS, 1.71 µM
[9] = HPLM + 10% dialyzed FBS, 5.12 µM
[10] = HPLM + 10% dialyzed FBS, 15.4 µM
[11] = HPLM + 10% dialyzed FBS, 46.1 µM
[12] = RPMI 5 mM glucose + 10% FBS, 0.000781 µM
[13] = RPMI 5 mM glucose + 10% FBS, 0.00234 µM
[14] = RPMI 5 mM glucose + 10% FBS, 0.00702 µM
[15] = RPMI 5 mM glucose + 10% FBS, 0.0211 µM
[16] = RPMI 5 mM glucose + 10% FBS, 0.0632 µM
[17] = RPMI 5 mM glucose + 10% FBS, 0.19 µM
[18] = RPMI 5 mM glucose + 10% FBS, 0.569 µM
[19] = RPMI 5 mM glucose + 10% FBS, 1.71 µM
[20] = RPMI 5 mM glucose + 10% FBS, 5.12 µM
[21] = RPMI 5 mM glucose + 10% FBS, 15.4 µM
[22] = RPMI 5 mM glucose + 10% FBS, 46.1 µM
[23] = RPMI 5 mM glucose + 10% dialyzed FBS, 0.000781 µM
[24] = RPMI 5 mM glucose + 10% dialyzed FBS, 0.00234 µM
[25] = RPMI 5 mM glucose + 10% dialyzed FBS, 0.00702 µM
[26] = RPMI 5 mM glucose + 10% dialyzed FBS, 0.0211 µM
[27] = RPMI 5 mM glucose + 10% dialyzed FBS, 0.0632 µM
[28] = RPMI 5 mM glucose + 10% dialyzed FBS, 0.19 µM
[29] = RPMI 5 mM glucose + 10% dialyzed FBS, 0.569 µM
[30] = RPMI 5 mM glucose + 10% dialyzed FBS, 1.71 µM
[31] = RPMI 5 mM glucose + 10% dialyzed FBS, 5.12 µM
[32] = RPMI 5 mM glucose + 10% dialyzed FBS, 15.4 µM
[33] = RPMI 5 mM glucose + 10% dialyzed FBS, 46.1 µM

SMILES | cell viability [1] | cell viability [2] | cell viability [3] | cell viability [4] | cell viability [5] | cell viability [6] | cell viability [7] | cell viability [8] | cell viability [9] | cell viability [10] | cell viability [11] | cell viability [12] | cell viability [13] | cell viability [14] | cell viability [15] | cell viability [16] | cell viability [17] | cell viability [18] | cell viability [19] | cell viability [20] | cell viability [21] | cell viability [22] | cell viability [23] | cell viability [24] | cell viability [25] | cell viability [26] | cell viability [27] | cell viability [28] | cell viability [29] | cell viability [30] | cell viability [31] | cell viability [32] | cell viability [33]
CN1\C=N/C2=CC=C(NC3=CC(=CC=C3C)NC(=O)C4=CC(=CC=C4)C(C)(C)C#N)C=C2C1=O | 97.8% | 107% | 96.4% | 105% | 92.7% | 94.6% | 76.8% | 76.3% | 52.1% | 52.7% | 19.1% | 93.6% | 95.1% | 111% | 99% | 89.6% | 88.5% | 81.2% | 75.6% | 47.7% | 46.3% | 28.1% | 110% | 92.4% | 92.9% | 101% | 91.2% | 79.2% | 76.6% | 65.5% | 46.8% | 46.3% | 28.6%
CC(=O)Oc1ccccc1C(=O)Nc1ncc([N+](=O)[O-])s1 | 98.9% | 100% | 98.9% | 107% | 111% | 105% | 106% | 96.1% | 98.4% | 71.8% | 89.4% | 84% | 92% | 93.4% | 96.4% | 115% | 92.3% | 102% | 103% | 104% | 97.6% | 96.9% | 83.7% | 95.2% | 77.7% | 86.3% | 94.8% | 98.8% | 95.7% | 98.4% | 86.3% | 69.2% | 75.1%
O=C(O)c1cccnc1Nc1cccc(C(F)(F)F)c1 | 112% | 124% | 129% | 104% | 122% | 131% | 150% | 142% | 132% | 129% | 135% | 105% | 116% | 108% | 116% | 110% | 128% | 124% | 122% | 125% | 132% | 120% | 97.1% | 101% | 101% | 114% | 114% | 117% | 120% | 111% | 115% | 120% | 106%
Cc1csc(-c2nnc(Nc3ccc(Oc4ncccc4-c4ccnc(N)n4)cc3)c3ccccc23)c1 | 106% | 101% | 113% | 79% | 95.3% | 89.3% | 99.5% | 86.7% | 72.6% | 76.3% | 84.1% | 99.9% | 111% | 97.5% | 53.2% | 45.9% | 52.6% | 75.1% | 81.6% | 65.9% | 67.3% | 74.1% | 105% | 103% | 89.8% | 60.3% | 62% | 59% | 72.6% | 77.9% | 72.5% | 84.1% | 80.5%
CC[C@@H]([C@H](C)O)n1ncn(-c2ccc(N3CCN(c4ccc(OCC5CO[C@@](Cn6cncn6)(c6ccc(F)cc6F)C5)cc4)CC3)cc2)c1=O (stereo partly drawn) | 109% | 106% | 91.5% | 112% | 106% | 98.2% | 109% | 107% | 82.4% | 94.8% | 84.9% | 101% | 97.3% | 93.3% | 97% | 83.5% | 91.4% | 87.3% | 87% | 87.5% | 82.3% | 78.1% | 95.1% | 90.3% | 92.6% | 81.3% | 93.6% | 83.4% | 92.1% | 90.1% | 90.4% | 87.1% | 78.2%
CNc1nc(Nc2cnn([C@H]3CCN(C4COC4)C[C@@H]3F)c2Cl)ncc1C(F)(F)F | 105% | 105% | 115% | 116% | 120% | 36.8% | 82.4% | 35.6% | 39.6% | 36.5% | 29.5% | 97.2% | 109% | 110% | 118% | 105% | 107% | 115% | 65.4% | 19.3% | 19.6% | 18% | 98.8% | 110% | 108% | 107% | 118% | 127% | 103% | 126% | 39.6% | 23.6% | 26.5%
CC1=CC(=CC(=C1C\C2=N\CCN2)C)C(C)(C)C | 91.4% | 115% | 107% | 129% | 104% | 109% | 108% | 87.7% | 57.4% | 34.2% | 35.9% | 99.3% | 98.7% | 92.9% | 100% | 114% | 96.3% | 98.4% | 91.1% | 69.5% | 51.5% | 43.9% | 86.8% | 106% | 101% | 100% | 109% | 99.8% | 116% | 78.9% | 49.1% | 56.8% | 50.7%
O=C(c1ccccc1)c1ccc2n1CCC2C(=O)O (stereo not drawn) |  |  |  |  |  |  |  |  |  |  |  | 121% | 113% | 125% | 130% | 108% | 122% | 120% | 110% | 111% | 115% | 98.6% | 107% | 115% | 110% | 121% | 125% | 108% | 116% | 115% | 97.4% | 103% | 107%
